From ChEMBL document CHEMBL3885881, “DrugMatrix”
Values joined by “and” are separate entries in the source; they are usually repeats but may differ in a detail not shown here. Identical values can stand only once.

Species on record: Rattus norvegicus
Experiment: DrugMatrix - Regimen: Daily Repeat
Assay type: toxicity, organism-based, Sprague-Dawley
Parameters: regimen Daily Repeat, gender Male, age 6-8 weeks
Conditions: in vivo, po, 0 mg/kg, route oral GAVAGE, dose level Control, vehicle 100 % WATER; for ALANINE AMINOTRANSFERASE / ALBUMIN / ALKALINE PHOSPHATASE / ASPARTATE AMINOTRANSFERASE / BLOOD UREA NITROGEN / CARBON DIOXIDE / CHLORIDE / CHOLESTEROL / CREATINE PHOSPHOKINASE / CREATININE / GLUCOSE / LACTATE DEHYDROGENASE / LIPASE / PHOSPHORUS / POTASSIUM / SODIUM / TOTAL BILIRUBIN / TOTAL PROTEIN / URIC ACID: tissue Plasma
[1] = 120 h, tissue Blood, time 5 day

For COCCc1ccc(OCC(O)CNC(C)C)cc1 (configuration not stated) [METOPROLOL], the “ABSOLUTE SEGMENTED NEUTROPHIL” value (72 h, tissue Blood, time 3 day) was 1139.67 CELLS/uL, the BASOPHIL (72 h, tissue Blood, time 3 day) was 1.07% and 0% and the EOSINOPHIL (72 h, tissue Blood, time 3 day) was 1.03% and 0.83%. For the same compound, the “ERYTHROCYTE COUNT” value (72 h, tissue Blood, time 3 day) was 5.88 x10E6/uL and 5.54 x10E6/uL, the HEMATOCRIT (72 h, tissue Blood, time 3 day) was 38.37% and 35.35% and the HEMOGLOBIN (72 h, tissue Blood, time 3 day) was 12.5 G/DL and 13.22 G/DL. The “LEUKOCYTE COUNT” value (72 h, tissue Blood, time 3 day) was 11.61 x10E3/uL and 12 x10E3/uL, the LYMPHOCYTE (72 h, tissue Blood, time 3 day) was 74.4% and 89% and the “MEAN CORPUSCULAR HEMOGLOBIN” value (72 h, tissue Blood, time 3 day) was 21.23 pg and 23.88 pg. For the same compound, the “MEAN CORPUSCULAR HEMOGLOBIN CONCENTRATION” value (72 h, tissue Blood, time 3 day) was 32.5 G/DL and 37.4 G/DL, the “MEAN CORPUSCULAR VOLUME” value (72 h, tissue Blood, time 3 day) was 65.47 fL and 63.85 fL and the MONOCYTE (72 h, tissue Blood, time 3 day) was 2.73% and 1%. For the same compound, the NEUTROPHIL (72 h, tissue Blood, time 3 day) was 20.17% and 9.17%, the “NUCLEATED RED BLOOD CELLS” value (72 h, tissue Blood, time 3 day) was 0 /100WBC and the “PLATELET COUNT” value (72 h, tissue Blood, time 3 day) was 1067 x10E3/uL and 1333.33 x10E3/uL. The “ALANINE AMINOTRANSFERASE” value (72 h, time 3 day) was 35.33 u/L and 53.17 u/L, the ALBUMIN (72 h, time 3 day) was 3.83 G/DL and 4.32 G/DL and the “ALKALINE PHOSPHATASE” value (72 h, time 3 day) was 469.67 u/L and 404.33 u/L. For the same compound, the “ASPARTATE AMINOTRANSFERASE” value (72 h, time 3 day) was 65.33 u/L and 83.17 u/L, the “BLOOD UREA NITROGEN” value (72 h, time 3 day) was 16.33 mg/dL and 15.67 mg/dL and the “CARBON DIOXIDE” value (72 h, time 3 day) was 44.67 mmol/L and 27.33 mmol/L. For the same compound, the CHLORIDE (72 h, time 3 day) was 102 MEQ/L and 101.83 MEQ/L, the CHOLESTEROL (72 h, time 3 day) was 71.33 mg/dL and 68.67 mg/dL and the “CREATINE PHOSPHOKINASE” value (72 h, time 3 day) was 256.67 u/L and 276.17 u/L. The CREATININE (72 h, time 3 day) was 0.4 mg/dL and 0.18 mg/dL, the GLUCOSE (72 h, time 3 day) was 165 mg/dL and 163.5 mg/dL and the “LACTATE DEHYDROGENASE” value (72 h, time 3 day) was 114.33 u/L and 144.67 u/L. For the same compound, the LIPASE (72 h, time 3 day) was 16 u/L and 8.83 u/L, the PHOSPHORUS (72 h, time 3 day) was 10.7 mg/dL and 11.72 mg/dL and the POTASSIUM (72 h, time 3 day) was 6.87 MEQ/L and 5.99 MEQ/L. For the same compound, the SODIUM (72 h, time 3 day) was 143 MEQ/L and 143.57 MEQ/L, the “TOTAL BILIRUBIN” value (72 h, time 3 day) was 0.4 mg/dL and 0.2 mg/dL and the “TOTAL PROTEIN” value (72 h, time 3 day) was 6.37 G/DL and 6.1 G/DL. The “URIC ACID” value (72 h, time 3 day) was 0.87 mg/dL and 1.38 mg/dL, the “ABSOLUTE SEGMENTED NEUTROPHIL” value [1] was 1137.17 CELLS/uL and the BASOPHIL [1] was 0.57% and 0%. The EOSINOPHIL [1] was 1.33% and 1.67%, the “ERYTHROCYTE COUNT” value [1] was 6.38 x10E6/uL and 5.82 x10E6/uL and the HEMATOCRIT [1] was 42.13% and 36.35%. The HEMOGLOBIN [1] was 13.6 G/DL and 13.58 G/DL, the “LEUKOCYTE COUNT” value [1] was 13.38 x10E3/uL and 14.38 x10E3/uL and the LYMPHOCYTE [1] was 81.03% and 90.5%. For the same compound, the “MEAN CORPUSCULAR HEMOGLOBIN” value [1] was 21.27 pg and 23.32 pg, the “MEAN CORPUSCULAR HEMOGLOBIN CONCENTRATION” value [1] was 32.27 G/DL and 37.42 G/DL and the “MEAN CORPUSCULAR VOLUME” value [1] was 66 fL and 62.42 fL. The MONOCYTE [1] was 2% and 0.17%, the NEUTROPHIL [1] was 14.33% and 7.67% and the “NUCLEATED RED BLOOD CELLS” value [1] was 0 /100WBC. For the same compound, the “PLATELET COUNT” value [1] was 1279.33 x10E3/uL and 1337.67 x10E3/uL, the “ALANINE AMINOTRANSFERASE” value (120 h, time 5 day) was 29 u/L and 48.5 u/L and the ALBUMIN (120 h, time 5 day) was 3.8 G/DL and 4.32 G/DL. For the same compound, the “ALKALINE PHOSPHATASE” value (120 h, time 5 day) was 440.33 u/L and 354.33 u/L, the “ASPARTATE AMINOTRANSFERASE” value (120 h, time 5 day) was 61.33 u/L and 80 u/L and the “BLOOD UREA NITROGEN” value (120 h, time 5 day) was 15.67 mg/dL and 16 mg/dL. For the same compound, the “CARBON DIOXIDE” value (120 h, time 5 day) was 44.67 mmol/L and 27.33 mmol/L, the CHLORIDE (120 h, time 5 day) was 102 MEQ/L and 100.33 MEQ/L and the CHOLESTEROL (120 h, time 5 day) was 59.67 mg/dL and 68 mg/dL. For the same compound, the “CREATINE PHOSPHOKINASE” value (120 h, time 5 day) was 184.33 u/L and 325.17 u/L, the CREATININE (120 h, time 5 day) was 0.3 mg/dL and 0.23 mg/dL and the GLUCOSE (120 h, time 5 day) was 180 mg/dL and 172 mg/dL. For the same compound, the “LACTATE DEHYDROGENASE” value (120 h, time 5 day) was 88.33 u/L and 254.83 u/L, the LIPASE (120 h, time 5 day) was 8 u/L and 8.33 u/L and the PHOSPHORUS (120 h, time 5 day) was 10.73 mg/dL and 12.17 mg/dL. The POTASSIUM (120 h, time 5 day) was 6.5 MEQ/L and 6.28 MEQ/L, the SODIUM (120 h, time 5 day) was 145.67 MEQ/L and 143.57 MEQ/L and the “TOTAL BILIRUBIN” value (120 h, time 5 day) was 0.3 mg/dL and 0.18 mg/dL. The “TOTAL PROTEIN” value (120 h, time 5 day) was 6.3 G/DL and 6.12 G/DL, the “URIC ACID” value (120 h, time 5 day) was 0.8 mg/dL and 1.78 mg/dL and the ABSOLUTE BASOPHIL ([…], tissue Blood, time 14 day) was 130 cells/µL. The ABSOLUTE EOSINOPHIL ([…], tissue Blood, time 14 day) was 60 cells/µL, the ABSOLUTE LYMPHOCYTE ([…], tissue Blood, time 14 day) was 9510 cells/µL and the ABSOLUTE MONOCYTE ([…], tissue Blood, time 14 day) was 270 cells/µL.
